Data on one molecule can be found in publication PMC11576293, “New series of 4,6-diaryl pyrimidines: facile synthesis and antiproliferative activity as dual EGFR/VEGFR-2 inhibitors” (Frontiers in Chemistry, 2024).

As usually defined, the inhibition is the relative decrease from the control value, in per cent.

For one test, the system named is 786-0. The experiment in a line: NCI-60 single-dose screen. The note with it: Homo sapiens, single dose 10 µM, '-' = no inhibition, read-out: % Growth Inhibition. In kind it is cell-based. The method, boiled down:
(§1)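 NCI Developmental Therapeutics Program screen across 60 human cancer cell lines from nine tumor types; compounds tested at a single dose of 10 μM.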
On to `CCCSc1nc(-c2ccc(OC)cc2)cc(-c2cccc(OC)c2)n1` [Compound 18, 6-(3-Methoxyphenyl)-4-(4-methoxyphenyl)-2-(propylthio)pyrimidine], for which the inhibition at 10 µM is less than 0%.

The test system of another test is A498. Put plainly: NCI-60 single-dose screen. The note with it: Homo sapiens, single dose 10 µM, '-' = no inhibition, read-out: % Growth Inhibition. Type of test: cell-based. The method, boiled down: as §1
In the case of `CCCSc1nc(-c2ccc(OC)cc2)cc(-c2cccc(OC)c2)n1` [Compound 18, 6-(3-Methoxyphenyl)-4-(4-methoxyphenyl)-2-(propylthio)pyrimidine], the inhibition at 10 µM was less than 0%.

For a further test, the system named is A549/ATCC. Put plainly: NCI-60 single-dose screen. In kind it is cell-based. Conditions: Homo sapiens, single dose 10 µM, '-' = no inhibition, read-out: % Growth Inhibition. In outline:
as §1
Regarding `CCCSc1nc(-c2ccc(OC)cc2)cc(-c2cccc(OC)c2)n1` [Compound 18, 6-(3-Methoxyphenyl)-4-(4-methoxyphenyl)-2-(propylthio)pyrimidine], the inhibition at 10 µM stood at 7.77%.

A further test deals with ACHN 1. Put plainly: NCI-60 single-dose screen. Type of test: cell-based. The note with it: Homo sapiens, single dose 10 µM, '-' = no inhibition, read-out: % Growth Inhibition. The method, boiled down: as §1
`CCCSc1nc(-c2ccc(OC)cc2)cc(-c2cccc(OC)c2)n1` [Compound 18, 6-(3-Methoxyphenyl)-4-(4-methoxyphenyl)-2-(propylthio)pyrimidine]: the inhibition at 10 µM is less than 0%.

The next test has as its system BT-549. Put plainly: NCI-60 single-dose screen. Type of test: cell-based. The note with it: Homo sapiens, single dose 10 µM, '-' = no inhibition, read-out: % Growth Inhibition. The method, boiled down: as §1
Take `CCCSc1nc(-c2ccc(OC)cc2)cc(-c2cccc(OC)c2)n1` [Compound 18, 6-(3-Methoxyphenyl)-4-(4-methoxyphenyl)-2-(propylthio)pyrimidine]: the inhibition at 10 µM is less than 0%.

A further test has as its system CCRF-CEM. Put plainly: NCI-60 single-dose screen. Type of test: cell-based. Conditions: Homo sapiens, single dose 10 µM, '-' = no inhibition, read-out: % Growth Inhibition. The method, boiled down: as §1
Take `CCCSc1nc(-c2ccc(OC)cc2)cc(-c2cccc(OC)c2)n1` [Compound 18, 6-(3-Methoxyphenyl)-4-(4-methoxyphenyl)-2-(propylthio)pyrimidine]: the inhibition at 10 µM is less than 0%.

For a further test, the system named is COLO 205. The experiment in a line: NCI-60 single-dose screen. Type of test: cell-based. Conditions: Homo sapiens, single dose 10 µM, '-' = no inhibition, read-out: % Growth Inhibition. In outline:
as §1
Consider `CCCSc1nc(-c2ccc(OC)cc2)cc(-c2cccc(OC)c2)n1` [Compound 18, 6-(3-Methoxyphenyl)-4-(4-methoxyphenyl)-2-(propylthio)pyrimidine], for which the inhibition at 10 µM is 0.86%.

The next test deals with EKVX. Put plainly: NCI-60 single-dose screen. Type of test: cell-based. Conditions: Homo sapiens, single dose 10 µM, '-' = no inhibition, read-out: % Growth Inhibition. In outline: as §1
For `CCCSc1nc(-c2ccc(OC)cc2)cc(-c2cccc(OC)c2)n1` [Compound 18, 6-(3-Methoxyphenyl)-4-(4-methoxyphenyl)-2-(propylthio)pyrimidine], the inhibition at 10 µM was less than 0%.

Another test concerns HCC-2998. Put plainly: NCI-60 single-dose screen. Type of test: cell-based. Conditions: Homo sapiens, single dose 10 µM, '-' = no inhibition, read-out: % Growth Inhibition. The method, boiled down: as §1
Take `CCCSc1nc(-c2ccc(OC)cc2)cc(-c2cccc(OC)c2)n1` [Compound 18, 6-(3-Methoxyphenyl)-4-(4-methoxyphenyl)-2-(propylthio)pyrimidine]: the inhibition at 10 µM was less than 0%.

The test system of a further test is HCT-15. Put plainly: NCI-60 single-dose screen. Type of test: cell-based. Conditions: Homo sapiens, single dose 10 µM, '-' = no inhibition, read-out: % Growth Inhibition. The method, boiled down:
as §1
As for `CCCSc1nc(-c2ccc(OC)cc2)cc(-c2cccc(OC)c2)n1` [Compound 18, 6-(3-Methoxyphenyl)-4-(4-methoxyphenyl)-2-(propylthio)pyrimidine], the inhibition at 10 µM is 8.49%.

The next test concerns HL-60(TB). The experiment in a line: NCI-60 single-dose screen. Conditions: Homo sapiens, single dose 10 µM, '-' = no inhibition, read-out: % Growth Inhibition. In kind it is cell-based.
On to `CCCSc1nc(-c2ccc(OC)cc2)cc(-c2cccc(OC)c2)n1` [Compound 18, 6-(3-Methoxyphenyl)-4-(4-methoxyphenyl)-2-(propylthio)pyrimidine], for which the inhibition at 10 µM was 20.3%.

The subject of a further test is HOP-62. The experiment in a line: NCI-60 single-dose screen. Type of test: cell-based. Conditions: Homo sapiens, single dose 10 µM, '-' = no inhibition, read-out: % Growth Inhibition. The method, boiled down: as §1
`CCCSc1nc(-c2ccc(OC)cc2)cc(-c2cccc(OC)c2)n1` [Compound 18, 6-(3-Methoxyphenyl)-4-(4-methoxyphenyl)-2-(propylthio)pyrimidine]: the inhibition at 10 µM is less than 0%.

The next test deals with HT29. The experiment in a line: NCI-60 single-dose screen. Conditions: Homo sapiens, HT-29, single dose 10 µM, '-' = no inhibition, read-out: % Growth Inhibition. In kind it is cell-based. The method, boiled down:
as §1
As for `CCCSc1nc(-c2ccc(OC)cc2)cc(-c2cccc(OC)c2)n1` [Compound 18, 6-(3-Methoxyphenyl)-4-(4-methoxyphenyl)-2-(propylthio)pyrimidine], the inhibition at 10 µM worked out at 4.83%.

A further test deals with IGROV1. The experiment in a line: NCI-60 single-dose screen. In kind it is cell-based. The note with it: Homo sapiens, IGROV-1, single dose 10 µM, '-' = no inhibition, read-out: % Growth Inhibition. The method, boiled down:
as §1
Consider `CCCSc1nc(-c2ccc(OC)cc2)cc(-c2cccc(OC)c2)n1` [Compound 18, 6-(3-Methoxyphenyl)-4-(4-methoxyphenyl)-2-(propylthio)pyrimidine], for which the inhibition at 10 µM was less than 0%.

The test system of a further test is K-562. The experiment in a line: NCI-60 single-dose screen. Type of test: cell-based. The note with it: Homo sapiens, K562, single dose 10 µM, '-' = no inhibition, read-out: % Growth Inhibition. The method, boiled down:
as §1
With `CCCSc1nc(-c2ccc(OC)cc2)cc(-c2cccc(OC)c2)n1` [Compound 18, 6-(3-Methoxyphenyl)-4-(4-methoxyphenyl)-2-(propylthio)pyrimidine], the inhibition at 10 µM was 12.8%.

The subject of a further test is LOX IMVI. Put plainly: NCI-60 single-dose screen. In kind it is cell-based. Conditions: Homo sapiens, single dose 10 µM, '-' = no inhibition, read-out: % Growth Inhibition. In outline: as §1
Turning to `CCCSc1nc(-c2ccc(OC)cc2)cc(-c2cccc(OC)c2)n1` [Compound 18, 6-(3-Methoxyphenyl)-4-(4-methoxyphenyl)-2-(propylthio)pyrimidine], the inhibition at 10 µM is less than 0%.

The next test has as its system M14. Put plainly: NCI-60 single-dose screen. Conditions: Homo sapiens, single dose 10 µM, '-' = no inhibition, read-out: % Growth Inhibition. Type of test: cell-based. In outline: as §1
With `CCCSc1nc(-c2ccc(OC)cc2)cc(-c2cccc(OC)c2)n1` [Compound 18, 6-(3-Methoxyphenyl)-4-(4-methoxyphenyl)-2-(propylthio)pyrimidine], the inhibition at 10 µM amounted to 9.08%.

A further test concerns MALME-3M. The experiment in a line: NCI-60 single-dose screen. Type of test: cell-based. Conditions: Homo sapiens, single dose 10 µM, '-' = no inhibition, read-out: % Growth Inhibition. In outline: as §1
`CCCSc1nc(-c2ccc(OC)cc2)cc(-c2cccc(OC)c2)n1` [Compound 18, 6-(3-Methoxyphenyl)-4-(4-methoxyphenyl)-2-(propylthio)pyrimidine]: the inhibition at 10 µM is less than 0%.

A further test has as its system MCF7. Put plainly: NCI-60 single-dose screen. In kind it is cell-based. The note with it: Homo sapiens, single dose 10 µM, '-' = no inhibition, read-out: % Growth Inhibition. The method, boiled down: as §1
For the molecule `CCCSc1nc(-c2ccc(OC)cc2)cc(-c2cccc(OC)c2)n1` [Compound 18, 6-(3-Methoxyphenyl)-4-(4-methoxyphenyl)-2-(propylthio)pyrimidine], the inhibition at 10 µM is 17.3%.

A further test deals with MDA-MB-468. Put plainly: NCI-60 single-dose screen. In kind it is cell-based. Conditions: Homo sapiens, single dose 10 µM, '-' = no inhibition, read-out: % Growth Inhibition. In outline: as §1
For the molecule `CCCSc1nc(-c2ccc(OC)cc2)cc(-c2cccc(OC)c2)n1` [Compound 18, 6-(3-Methoxyphenyl)-4-(4-methoxyphenyl)-2-(propylthio)pyrimidine], the inhibition at 10 µM was less than 0%.

For a further test, the system named is MDA-MB231/ATCC. Put plainly: NCI-60 single-dose screen. In kind it is cell-based. Conditions: Homo sapiens, MDA-MB-231, single dose 10 µM, '-' = no inhibition, read-out: % Growth Inhibition. The method, boiled down: as §1
Consider `CCCSc1nc(-c2ccc(OC)cc2)cc(-c2cccc(OC)c2)n1` [Compound 18, 6-(3-Methoxyphenyl)-4-(4-methoxyphenyl)-2-(propylthio)pyrimidine], for which the inhibition at 10 µM is less than 0%.

Another test relates to NCI-H23. The experiment in a line: NCI-60 single-dose screen. Type of test: cell-based. Conditions: Homo sapiens, single dose 10 µM, '-' = no inhibition, read-out: % Growth Inhibition. In outline:
as §1
In the case of `CCCSc1nc(-c2ccc(OC)cc2)cc(-c2cccc(OC)c2)n1` [Compound 18, 6-(3-Methoxyphenyl)-4-(4-methoxyphenyl)-2-(propylthio)pyrimidine], the inhibition at 10 µM was less than 0%.

Another test deals with NCI-H322M. Put plainly: NCI-60 single-dose screen. Type of test: cell-based. The note with it: Homo sapiens, single dose 10 µM, '-' = no inhibition, read-out: % Growth Inhibition. The method, boiled down: as §1
As to `CCCSc1nc(-c2ccc(OC)cc2)cc(-c2cccc(OC)c2)n1` [Compound 18, 6-(3-Methoxyphenyl)-4-(4-methoxyphenyl)-2-(propylthio)pyrimidine], the inhibition at 10 µM was less than 0%.
